# Test results: patent US9266848B2, “4-alkoxy-N-(2-hydroxycarbamoyl-2-piperidinyl-ethyl)-benzamide compounds as selective TACE-inhibitors for the treatment of inflammatory diseases” (GALDERMA RESEARCH & DEVELOPMENT, priority 2009, dated 2016)
# What was measured:
# TACE enzyme = TACE enzyme (Homo sapiens, UniProt P78536); experiment: Enzymatic test of TACE inhibition; type: biochemical
# Description: (§1) The products are dissolved so as to obtain a concentration of 10 mM in DMSO.
# The substrate is used at 40 μM.
# MMP1 = MMP1 (Homo sapiens (Human), UniProt P03956); experiment: Selectivity test MMP1; type: biochemical
# Description: as §1
# The substrate is used at 40 μM.
# (§2) The enzymes are purchased from Calbiochem.
# ADAM10 = ADAM10 (Homo sapiens (Human), UniProt O14672); experiment: Selectivity test ADAM10; type: biochemical
# ADAM10, sequence (O14672 214-748, species assumed): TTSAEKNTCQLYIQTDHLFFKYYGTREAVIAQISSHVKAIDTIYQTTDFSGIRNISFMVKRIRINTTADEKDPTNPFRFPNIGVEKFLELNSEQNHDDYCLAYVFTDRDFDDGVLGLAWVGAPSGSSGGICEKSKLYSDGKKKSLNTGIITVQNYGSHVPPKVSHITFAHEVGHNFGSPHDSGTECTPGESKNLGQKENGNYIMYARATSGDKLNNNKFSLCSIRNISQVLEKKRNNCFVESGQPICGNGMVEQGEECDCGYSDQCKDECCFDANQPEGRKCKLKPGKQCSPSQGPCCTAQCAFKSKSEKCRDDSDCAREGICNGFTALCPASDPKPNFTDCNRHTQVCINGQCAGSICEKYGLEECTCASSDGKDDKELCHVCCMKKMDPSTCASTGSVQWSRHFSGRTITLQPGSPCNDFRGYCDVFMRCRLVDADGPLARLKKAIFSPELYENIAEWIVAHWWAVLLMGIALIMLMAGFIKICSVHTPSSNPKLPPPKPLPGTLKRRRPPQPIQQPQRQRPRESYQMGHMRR
# Description: as §1
# The substrate is used at 40 μM.
# as §2
# MMP3 = MMP3 (Homo sapiens (Human), UniProt P08254); experiment: Selectivity test MMP3; type: biochemical
# MMP3, sequence (P08254 100-477, species assumed): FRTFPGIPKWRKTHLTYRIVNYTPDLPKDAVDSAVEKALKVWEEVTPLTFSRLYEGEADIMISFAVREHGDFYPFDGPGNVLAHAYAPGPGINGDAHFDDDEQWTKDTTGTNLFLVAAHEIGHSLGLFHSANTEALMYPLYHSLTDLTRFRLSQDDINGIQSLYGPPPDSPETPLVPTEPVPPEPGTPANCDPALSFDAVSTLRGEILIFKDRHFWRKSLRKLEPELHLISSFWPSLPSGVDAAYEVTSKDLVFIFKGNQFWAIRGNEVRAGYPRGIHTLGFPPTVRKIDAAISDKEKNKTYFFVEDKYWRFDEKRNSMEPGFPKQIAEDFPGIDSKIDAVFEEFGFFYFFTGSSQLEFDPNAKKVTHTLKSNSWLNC
# Description: as §1
# The substrate is used at 40 μM.
# as §2
# TACE enzyme, sequence (P78536 215-824 limits assumed): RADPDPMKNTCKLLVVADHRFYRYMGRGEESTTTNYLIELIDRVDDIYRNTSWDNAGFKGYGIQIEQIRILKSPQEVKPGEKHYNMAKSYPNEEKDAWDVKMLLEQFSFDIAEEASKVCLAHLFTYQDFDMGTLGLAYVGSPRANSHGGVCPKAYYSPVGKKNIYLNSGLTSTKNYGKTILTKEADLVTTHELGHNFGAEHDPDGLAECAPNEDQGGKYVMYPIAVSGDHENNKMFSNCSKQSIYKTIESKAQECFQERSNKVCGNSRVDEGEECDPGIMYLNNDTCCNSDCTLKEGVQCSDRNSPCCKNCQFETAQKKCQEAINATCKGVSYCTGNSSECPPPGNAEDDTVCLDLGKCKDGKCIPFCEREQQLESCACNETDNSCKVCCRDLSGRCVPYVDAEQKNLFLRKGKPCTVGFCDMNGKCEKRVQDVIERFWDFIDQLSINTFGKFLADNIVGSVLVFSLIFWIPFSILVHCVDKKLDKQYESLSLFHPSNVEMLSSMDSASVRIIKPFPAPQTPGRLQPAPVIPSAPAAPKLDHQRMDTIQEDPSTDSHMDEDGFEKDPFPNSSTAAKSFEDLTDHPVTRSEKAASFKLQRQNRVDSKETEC
# MMP1, sequence (P03956 100-469, species assumed): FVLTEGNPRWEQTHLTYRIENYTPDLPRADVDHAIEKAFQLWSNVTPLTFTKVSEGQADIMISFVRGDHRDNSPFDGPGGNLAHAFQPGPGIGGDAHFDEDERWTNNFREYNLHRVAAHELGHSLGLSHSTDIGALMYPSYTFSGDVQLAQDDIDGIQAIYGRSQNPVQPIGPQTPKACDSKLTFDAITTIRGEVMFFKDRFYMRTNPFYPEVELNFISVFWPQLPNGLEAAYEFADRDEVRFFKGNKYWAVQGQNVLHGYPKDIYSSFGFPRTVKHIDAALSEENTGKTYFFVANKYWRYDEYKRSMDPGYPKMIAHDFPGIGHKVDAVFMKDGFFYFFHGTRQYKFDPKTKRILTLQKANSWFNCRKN
SMILES,% TACE inhibition at 10 μM (TACE enzyme),IC50 (TACE enzyme; fluorescent substrate 40 μM),IC50 (TACE enzyme; selectivity table),IC50 (MMP1),IC50 (ADAM10),IC50 (MMP3),melting point
"CC#CCOc1ccc(C(=O)NC[C@@H](C(=O)NO)N2CCCCC2)cc1 [Example 1, 4-but-2-ynyloxy-N—((S)-2-hydroxycarbamoyl-2-piperidin-1-ylethyl)benzamide]",96%,9 nM,–,–,–,–,–
"Cc1cc(COc2ccc(C(=O)NC[C@@H](C(=O)NO)N3CCCCC3)cc2)c2ccccc2n1 [Example 2, N—((S)-2-hydroxycarbamoyl-2-piperidin-1-yl-ethyl)-4-(2-methylquinolin-4-ylmethoxy)benzamide]",100%,71 nM,71 nM,9.95 µM,6.41 µM,–,–
"O=C(NC[C@@H](C(=O)NO)N1CCCCC1)c1ccc(OCc2cc(Cl)nc(Cl)c2)cc1 [Example 3, 4-(2,6-dichloropyridin-4-ylmethoxy)-N—((S)-2-hydroxycarbamoyl-2-piperidin-1-ylethyl)benzamide]",97%,255 nM,–,–,–,–,–
"O=C(NC[C@@H](C(=O)NO)N1CCCCC1)c1ccc(OCc2ccnc(-c3ccccc3)c2)cc1 [Example 4, N—((S)-2-hydroxycarbamoyl-2-piperidin-1-yl-ethyl)-4-(2-phenylpyridin-4-ylmethoxy)benzamide]",100%,–,–,–,–,–,–
"O=C(NC[C@@H](C(=O)NO)N1CCCCC1)c1ccc(OCc2ccncc2)cc1 [Example 5, N—((S)-2-hydroxycarbamoyl-2-piperidin-1-yl-ethyl)-4-(pyridin-4-ylmethoxy)benzamide]",93%,108 nM,108 nM,–,3.09 µM,6.12 µM,–
"Cc1ccc(COc2ccc(C(=O)NC[C@@H](C(=O)NO)N3CCCCC3)cc2)c2ccccc12 [Example 7, N—((S)-2-hydroxycarbamoyl-2-piperidin-1-yl-ethyl)-4-(4-methylnaphthalen-1-ylmethoxy)benzamide]",90%,91 nM,–,–,–,–,–
"O=C(NC[C@@H](C(=O)NO)N1CCCCC1)c1ccc(OCc2ccnc(Br)c2)cc1 [Example 8, 4-(2-bromopyridin-4-ylmethoxy)-N—((S)-2-hydroxycarbamoyl-2-piperidin-1-ylethyl)benzamide]",91%,–,–,–,–,–,150 °C
"O=C(NC[C@@H](C(=O)NO)N1CCOCC1)c1ccc(OCc2ccncc2)cc1 [Example 9, N—((S)-2-hydroxycarbamoyl-2-morpholin-4-ylethyl)-4-(pyridin-4-ylmethoxy)benzamide]",92%,428 nM,–,–,–,–,–
"O=C(NC[C@@H](C(=O)NO)N1CCOCC1)c1ccc(OCc2ccnc(-c3ccccc3C(F)(F)F)c2)cc1 [Example 10, N—((S)-2-hydroxycarbamoyl-2-morpholin-4-ylethyl)-4-[2-(2-trifluoromethylphenyl)pyridin-4-yl-methoxy]benzamide]",90%,900 nM,–,–,–,–,–
"CCN(CC)[C@@H](CNC(=O)c1ccc(OCc2cc(C)nc3ccccc23)cc1)C(=O)NO [Example 11, N—((S)-2-diethylamino-2-hydroxycarbamoyl-ethyl)-4-(2-methylquinolin-4-ylmethoxy)benzamide]",91%,232 nM,232 nM,–,–,–,–
